Values joined by “and” are separate entries in the source; they are usually repeats but may differ in a detail not shown here. Equal values may be shown once. Square brackets hold non-standard residues; d marks the D form. Peptide text beside a SMILES is read from it.
Tests used:
[1] = molecular target: T1, recombinant human cGAS enzyme (hcGAS-ΔN, residues 147–522) (Homo sapiens, UniProt Q8N884); test: RNA-based fluorescent biosensor assay of cGAS activity (2',3'-cGAMP formation), in vitro screening; format: biochemical; details: for Remaining activity (%), Fig. 1a source data / remaining activity at 20 µM: 20 μM, replicate values; for remaining activity at 20 µM: read-out: Remaining activity (%), Fig. 1a source data; for Inhibition % / inhibition at 20 µM: peptides screened at 20 μM, Supplementary Table 1 / Fig. S5b; for Inhibition %: 20 µM; for inhibition at 20 µM: read-out: Inhibition %
T1 construct: N-terminally truncated human cGAS (hcGAS-ΔN, residues 147–522); 6xHis-SUMO (N, cleaved yes); made in house; host or cells: Escherichia coli BL21 (DE3)
Method in brief: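 In 40 mM Tris-HCl pH 7.5, 100 mM NaCl, 10 mM MgCl2, ISD (0.5 μM) started the reaction with hcGAS-ΔN (1.5 μM), ATP (1 mM) and GTP (1 mM). Incubation was 2 h at 37 °C, with compounds screened at 20 μM. 2',3'-cGAMP formed was quantified with an RNA-based fluorescent biosensor.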

[2] = tested on: dsDNA-stimulated THP1 cells; test: qPCR of IFNB1/CXCL10/IL6 mRNA in THP1 cells stimulated by dsDNA (ISD, HSV60mer); format: cell-based, human; details: THP1, dsDNA 6 h; hits 10 μM; replicate values
From the text: (§1) To screen direct cGAS inhibitors targeting protein-DNA interface from our developed focused library of macrocyclic peptides, we applied an RNA-based fluorescent biosensor for 2’,3’-cGAMP to detect cGAS activity in vitro (Supplementary Fig. 1a)[49]. The formation of 2’,3’-cGAMP from ATP and GTP was catalyzed by recombinant human cGAS enzyme (hcGAS-ΔN, residues 147–522, Supplementary Fig. 1b) in the presence of ISD (interferon stimulatory DNA, a 45-bp dsDNA), which was readily quantified by the RNA-based fluorescent biosensor and was further confirmed by ion exchange chromatography (Supplementary Fig. 1c). […] Subsequently, a total of 90 macrocyclic peptides were screened at a concentration of 20 μM (Fig. 1a and Supplementary Fig. 1e), and 4 hits (XQ2, XQ8, XQ19, and XQ46) were obtained for further testing at a cut-off of 40% inhibition (Supplementary Table 1). To evaluate the inhibitory effect of the hits against cGAS in cells, we employed real-time quantitative PCR (qPCR) to examine mRNA levels of IFNΒ1 in THP1 cells. The reported cGAS inhibitor RU.521 was used as the positive control, and the non-active peptide XQ28 in the screening assay was used as the negative control. […] The inhibition of cGAS by these hits was further confirmed in the reporter cell line THP1-Lucia ISG (Invivogen) that expresses secreted luciferase induced by an IRF3-inducible ISG54 promoter (Fig. 1c). The discrepancy between the inhibitory effect of the hits in protein and cellular assays may be attributed to their different cellular permeability.
The indicated cells were stimulated with either ISD (Sangon Biotech), HSV-1 (Provided by Dr. Zhengfan Jiang), HSV60mer (Sangon Biotech), SATE-cddA[70], 2’3’-cGAMP (Invivogen, Cat# tlrl-nacga23-1), ADU-S100 (MedChemExpress, Cat# HY-12885A) or Poly(I:C) (Invivogen, Cat# tlrl-pic) after XQ2 or XQ2B treatment. Total RNA was isolated from indicated cells that incubated with the drugs for indicated time or mice tissues by using NucleoZOL reagent (MACHEREY-NAGEL) according to the manufacturer’s instructions. The quantifications of mRNA levels were carried out by real-time PCR using a PerfectStart® Uni RT&qPCR Kit (TransGen Biotech) on the QuantStudio 5 qPCR machine (Applied Biosystems). Samples were carried out in triplicate and the target CT values were normalized to GAPDH CT values. Primers of qPCR used in this study can be found in Supplementary Table S2.

[3] = tested on: THP1-Lucia ISG cells; test: Luciferase reporter assay, dsDNA stimulation; format: cell-based, human; parameters: Type I interferon response, luciferase activity, Fig. 1c / luciferase activity, Fig. 2a: scale not given here; details: dsDNA 24 h; replicate values
From the text: as §1
THP1-Lucia ISG cells (Invivogen) were seeded into a 96-well plate and incubated with RU.521 (Invivogen) or XQ2 for the indicated time, and then transfected with dsDNA by lipofectamine 2000 (Invitrogen) or infected by HSV-1 with the indicated titer for 24 h. The supernatant was collected and 50 μL QUANTI-Luc Luciferase reagent (Invivogen) was added to 20 μL supernatants per well, and luciferase luminescence was detected by a microplate reader (BioTek Synergy H1) immediately.

T1 sequence (Q8N884 147-522, stated change not applied): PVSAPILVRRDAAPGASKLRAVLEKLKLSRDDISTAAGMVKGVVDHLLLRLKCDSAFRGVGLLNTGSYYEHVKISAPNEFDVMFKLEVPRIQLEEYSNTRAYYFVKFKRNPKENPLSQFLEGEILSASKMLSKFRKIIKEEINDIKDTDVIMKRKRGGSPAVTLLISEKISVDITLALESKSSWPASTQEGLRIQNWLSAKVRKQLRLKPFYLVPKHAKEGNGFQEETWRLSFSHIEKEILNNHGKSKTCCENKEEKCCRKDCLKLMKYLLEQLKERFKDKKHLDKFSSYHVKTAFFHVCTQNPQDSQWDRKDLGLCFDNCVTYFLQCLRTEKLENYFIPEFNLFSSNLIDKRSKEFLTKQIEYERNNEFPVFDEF

SMILES	Remaining activity (%), Fig. 1a source data [1]	remaining activity at 20 µM [1] [%]	Inhibition % [1] [%]	inhibition at 20 µM [1] [%]	IFNB1 mRNA, qPCR, Fig. 1b [2]	Type I interferon response, luciferase activity, Fig. 1c [3]	cGAS activity in the biosensor assay [1]
CC(C)C[C@@H]1NC(=O)[C@H](CCCNC(=N)N)NC(=O)[C@H](C(C)C)NC(=O)[C@H](C)NC(=O)[C@@H](Cc2ccccc2)NC(=O)[C@H](CC(C)C)NC(=O)[C@H](CCCNC(=N)N)NC(=O)[C@H](C(C)C)NC(=O)[C@H](C)NC(=O)[C@@H](Cc2ccccc2)NC1=O [XQ8, Cyclo (LfAVRLfAVR)] (cyclo(AVRL[dF]AVRL[dF]))	48.5808% and 47.6977%	48.8	≥ 40	52	50.5074 and 61.5926 and 57.7936	1.122 and 0.7764 and 0.491	–
CC(C)C[C@@H]1NC(=O)[C@H](CCCNC(=N)N)NC(=O)[C@H](C(C)C)NC(=O)[C@@H]2CCCN2C(=O)[C@@H](Cc2ccccc2)NC(=O)[C@H](C)NC(=O)[C@H](CCCNC(=N)N)NC(=O)[C@H](C(C)C)NC(=O)[C@H](C)NC(=O)[C@@H](Cc2ccccc2)NC1=O [XQ19, Cyclo (AfPVRLfAVR)] (cyclo(AVRA[dF]PVRL[dF]))	39.7338% and 39.7351%	40.1	≥ 40	60	69.3649 and 64.1779 and 70.7063	0.9185 and 0.6328 and 0.8726	–
N=C(N)NCCC[C@@H]1NC(=O)[C@@H]2CCCN2C(=O)[C@H](Cc2ccccc2)NC(=O)[C@H](CCCNC(=N)N)NC(=O)[C@@H]2CCCN2C(=O)[C@H](Cc2ccccc2)NC1=O [XQ28, Cyclo (RFPRFP)] (cyclo(FPRFPR))	109.037% and 108.058%	107	–	0	80.7818 and 80.352 and 88.8517	1.441 and 0.666 and 1.434	non-active
CC(C)C[C@@H]1NC(=O)[C@H](CC(C)C)NC(=O)[C@H](C(C)C)NC(=O)[C@@H]2CCCN2C(=O)[C@@H](Cc2ccccc2)NC(=O)[C@H](C)NC(=O)[C@H](CCCNC(=N)N)NC(=O)[C@H](C(C)C)NC(=O)[C@@H]2CCCN2C(=O)[C@@H](Cc2ccccc2)NC1=O [XQ46, Cyclo (AfPVLLfPVR)] (cyclo(A[dF]PVLL[dF]PVR))	43.44% and 43.4055%	43.8	≥ 40	56	39.5997 and 41.1038 and 45.9315	0.8903 and 0.5111 and 0.5713	comparable inhibitory activity as that of XQ2, XQ8 and XQ19

Reference: publication PMC10545747, “Development of cyclopeptide inhibitors of cGAS targeting protein-DNA interaction and phase separation” (Nature Communications, 2023)
